Columns and labels:
Myzus persicae = experiment: Pesticidal effect against Myzus persicae (cabbage leaf disk spray); format: in vivo; conditions: Concentration 500 ppm; method of Test Example 3
Excerpt: Pesticidal Effect Against Myzus persicae
(§1) A cabbage leaf disk having a diameter of 2.8 cm was placed in a plastic schale. Test compounds, which had been diluted to designated concentrations by the addition of a 50% aqueous acetone solution (Tween 20, 0.05%), were spread over the cabbage leaf disk by means of a spray gun, and the cabbage leaf disk was then air dried. Thereafter, ten larvae at the first instar of Myzus persicae were released in the schale. The schale was then lidded, and the larvae were reared in a chamber at a constant temperature (25° C.).

Laodel phax striatellus = experiment: Control effect against Laodel phax striatellus (rice seedling spray); format: in vivo; conditions: Concentration 500 ppm; method of Test Example 5
Excerpt: Control Effect Against Laodel phax striatellus
Test compounds, which had been diluted to designated concentrations by the addition of a 50% aqueous acetone solution (Tween 20, 0.05%), were spread over four rice seedlings (7 days after sowing) sowed in a plastic pot by means of a spray gun, followed by air drying. Thereafter, this pot was covered by a plastic cylinder, and ten larvae at the second instar of Laodel phax striatellus were released in the pot. The pot was then lidded, and the larvae were reared in a chamber at a constant temperature (25° C.).

Tetranychus cinnabarinus = experiment: Miticidal effect against Tetranychus cinnabarinus (kidney leaf disk, eggs/larvae/nymphs); format: in vivo; conditions: Concentration 500 ppm; method of Test Example 4
Method: Miticidal Effect Against Tetranychus cinnabarinus
A kidney leaf disk having a diameter of 2 cm was placed on agar. Seven female adult mites of Tetranychus cinnabarinus were released on the kidney leaf disk. The female adult mites were allowed to oviposit in a chamber kept at a constant temperature (25° C.) for 24 hr. The female adult mites were then removed from the kidney leaf disk. Test compounds, which had been diluted to designated concentrations by the addition of a 50% aqueous acetone solution (Tween 20, 0.05%), were spread over the leaf disk by means of a spray gun, and the leaf disk was then air dried. Thereafter, the leaf disk was stored in a constant-temperature chamber of 25° C. […] The sum of the unhatching rate of eggs and the death rate of larva ticks/nymphs was determined as the total death rate.

Plutella xylostella = experiment: Pesticidal effect against Plutella xylostella (cabbage leaf disk spray); format: in vivo; conditions: Concentration 200 ppm; method of Test Example 1
Excerpt: Pesticidal Effect Against Plutella xylostella
as §1, with “5” for “2.8”, “cup.” for “schale.”, “Five” for “Thereafter, ten”, “second” for “first”, “Plutella xylostella” for “Myzus persicae”, “cup” for “schale”

Spodoptera litura = experiment: Pesticidal effect against Spodoptera litura (cabbage leaf disk spray); format: in vivo; conditions: Concentration 200 ppm; method of Test Example 2
Excerpt: Pesticidal Effect Against Spodoptera litura
as §1, with “5” for “2.8”, “cup.” for “schale.”, “Five” for “Thereafter, ten”, “third” for “first”, “Spodoptera litura” for “Myzus persicae”, “cup” for “schale”

Compound	melting point	Death rate, % Myzus persicae (Myzus persicae)	Death rate, % Laodelphax striatellus (Laodel phax striatellus)	Death rate, % Tetranychus cinnabarinus (Tetranychus cinnabarinus)	Death rate, % Plutella xylostella (Plutella xylostella)	Death rate, % Spodoptera litura (Spodoptera litura)
CC(=O)Oc1c(C)c(C)nc2ccc(Oc3ccc(Cl)cc3)c(Cl)c12 [Compound No. 2, 4-Acetoxy-5-chloro-6-(4-chlorophenoxy)-2,3-dimethyl-quinoline]	167 to 169 °C	–	–	–	–	–
CC(=O)Oc1c(C)c(C)nc2cc(Cl)c(Oc3ccc(Cl)cc3)cc12 [Compound No. 22, 4-acetoxy-7-chloro-6-(4-chlorophenoxy)-2,3-dimethyl-quinoline]	160 to 162 °C	–	–	–	–	–
COc1ccc2nc(C)c(C)c(OC(C)=O)c2c1 [JP 2633377 Compund No. 46]	–	0%	0%	0%	0%	10%
CC(=O)Oc1c(C)c(C)nc2ccc(Oc3ccccc3)cc12 [WO 98055460 Compund No. 136]	–	0%	0%	0%	0%	0%

Reference: US7880006B2, “Quinoline derivatives and insecticide comprising thereof as active ingredient” (Meiji Seika Kaisha, Ltd., priority 2004, dated 2011)
